From US20230128688A1, “DIRECTED CONJUGATION TECHNOLOGIES” (KLEO PHARMACEUTICALS, INC., priority 2019, published 2023)
Starred links: 1 amine or outer side, 2 acyl side, 3 side chain; linkers in the order of their positions; H or OH if unused. Positions of bridges follow the written chain, without caps; N, C: chain ends. Non-standard residues stand in square brackets, D forms with d. Residues, ends and D or L forms follow the SMILES beside them. Groups on a side chain read outwards from the residue. *: point of attachment. FITC = O=C1OC2(c3ccc(O)cc3Oc3cc(O)ccc32)c2ccc(NC(=S)*)cc21; X6 = O=C([C@H](Cc1cccc(O[*:3])c1)N[*:1])[*:2]; PEG8 = NCCOCCOCCOCCOCCOCCOCCOCCOCCC(=O)O; PEG6 = NCCOCCOCCOCCOCCOCCOCCC(=O)O; PEG2 = NCCOCCOCCC(=O)O; X7 = Fc1ccc(O*)cc1

Experiments:
[1] = tested on: Cetuximab; assay: Absorbance based DAR analysis of FITC conjugation to antibody; type: biochemical; settings: 2.5 M eq reagent, phosphate buffer saline pH 7.4, 4 h, 25 C; Drug = FITC
Procedure: (§1) In some embodiments, reaction partners, e.g., compounds of formula R-I or salts thereof ere dissolved in DMSO to 5 mM stock solution.
(§2) In some embodiments, reactions are set up with 300 micrograms of antibody. In some embodiments, various conditions, including various buffers, reagent equivalents, reaction time, reaction temperature and reaction concentrations can be utilized.
(§3) In some embodiments, a useful technology is absorbance based DAR analysis. DAR (ratio of moieties of interest and target agent moieties (e.g., antibody agent moieties) was calculated for various antibody conjugates, e.g., in various reagent screening/assessment methods. Various agents comprising target binding moieties were assessed for conjugation efficiency as reaction partners with targets, e.g. protein agents such as antibody agents, compared to reagents with the same reactive groups but without target binding moieties. In various ratio determination ‘Drug’/moiety of interest is fluorescein isothiocyanate (FITC) dye conjugated to target agents, e.g., antibody agents. DAR molar ratio is defined as a ratio of moles of drug/moiety of interest to moles of target agent/antibody. Molarity is calculated from absorbance of FITC (A485) and antibody (A280) of conjugated product, and extinction coefficients of FITC and antibody using Beer-Lambert law. Correction coefficient 0.35 was used to correct for absorbance of FITC at 280 nm. Biotek Synergy H1 microplate reader and Take3 microvolume plate were used for absorbance measurements. Concentration of antibody was at least 3 mg/mL for optimal signal-to-noise in the readings. Certain target binding moieties that can provide higher DAR compared to equivalent controls (absence of target binding moieties) were selected as hits for further analysis. Certain assessment data were provided below as examples.
Reactions were set up with antibodies using 2.5 M eq of indicated reagent in phosphate buffer saline pH 7.4 for 4 h at 25° C. DAR is Drug to antibody ratio, in this case “Drug” is FITC and DAR is measured using FITC absorbance.

[2] = tested on: daratumumab; assay: as above; type: biochemical
Procedure: as §1, §2
As an example, one reaction is 300 microliter reaction with 1 mg/mL of antibody in PBS. Peptide I-45 (1 microliter of 5 mM stock in DMSO, 2.5 molar equivalents relative to daratumumab) was diluted in 284 microliters of PBS buffer (10 mM phosphate, 150 mM sodium chloride, pH 7.4), then 15 microliters of daratumumab (20 mg/mL stock) was added to the reaction mixture followed by incubation at room temperature in the dark. After 4 h reaction buffer was exchanged using Amicon Ultra centrifuge filter (30 KDa MWCO, 0.5 mL volume). First, glycine buffer (100 mM, pH 2.1) was used for buffer exchange to ensure dissociation of target binding moieties after reaction. Then, phosphate buffer saline (pH 7.4) was used for further buffer exchange and storage.
In another example, a reaction is 300 microliter reaction with 1 mg/mL of antibody in borate buffer. Peptide I-44 (1.2 microliter of 5 mM stock in DMSO, 3.0 molar equivalents relative to daratumumab) was diluted in 284 microliters of Borate buffer (100 mM borate, pH 8.3), then 15 microliters of daratumumab (20 mg/mL stock) was added to the reaction mixture followed by incubation at room temperature in the dark. After 20 h reaction buffer was exchanged using Amicon Ultra centrifuge filter (30 KDa MWCO, 0.5 mL volume). First, glycine buffer (100 mM, pH 2.1) was used for buffer exchange to ensure dissociation of target binding moieties after reaction. Then, phosphate buffer saline (10 mM phosphate, 150 mM sodium chloride, pH 7.4) was used for further buffer exchange and storage.
as §3

[3] = 2.5 M eq reagent, phosphate buffer saline pH 7.4, 4 h, 25 C, Drug = FITC
[4] = 10 M eq reagent, Bicarbonate buffer pH 8.3, 20 h, 25 C, Drug = FITC
[5] = 5 M eq reagent, phosphate buffer saline pH 7.4, 4 h, 25 C, Drug = FITC
[6] = 30 M eq reagent, borate buffer pH 8.3, 20 h, 37 C, Drug = FITC
[7] = 2.5 M eq, 25 C, 4 h, PBS pH 7.4
[8] = 2.5 M eq, 25 C, 20 h, Borate pH 8.2
[9] = 2.5 M eq, 25 C, 20 h, PBS pH 7.4
[10] = 2.5 M eq, 25 C, 20 h, PBS pH 7.8
[11] = 2.5 M eq, 25 C, 20 h, PBS pH 8.0
[12] = 2.5 M eq, 25 C, 20 h, PBS pH 8.2
[13] = 2.5 M eq, 30 C, 20 h, PBS pH 7.4
[14] = 2.5 M eq, 37 C, 20 h, PBS pH 7.4

CC(=O)NCc1cc(F)c(OC(=O)CCOCCOCCOCCOCCOCCOCCNC(=S)Nc2ccc3c(c2)C(=O)OC32c3ccc(O)cc3Oc3cc(O)ccc32)c(F)c1 [Compound I-9]
DAR Cetuximab [1]: 0.03
DAR [2, 3]: 0.06
DAR Daratumumab [2, 3]: 0.06
DAR ([2]; 10 M eq reagent, Bicarbonate buffer pH 8.3, 2 h, 37 C, Drug = FITC): 1.10
DAR ([2]; antibody 1 mg/mL, 2.5 M eq, 25 C, 20 h, PBS pH 7.4): 0.19
DAR ([2]; antibody 1 mg/mL, 3 M eq, 25 C, 20 h, PBS pH 7.4): 0.18
DAR ([2]; antibody 1 mg/mL, 3.5 M eq, 25 C, 20 h, PBS pH 7.4): 0.24
DAR ([2]; antibody 4 mg/mL, 2.5 M eq, 25 C, 20 h, PBS pH 7.4): 0.37
DAR ([2]; antibody 4 mg/mL, 3 M eq, 25 C, 20 h, PBS pH 7.4): 0.49
DAR ([2]; antibody 4 mg/mL, 3.5 M eq, 25 C, 20 h, PBS pH 7.4): 0.44

N=C(N)NCCC[C@H](NC(=O)CCOCCOCCOCCOCCNC(=O)c1ccc(OC(=O)CCOCCOCCOCCOCCOCCOCCNC(=S)Nc2ccc3c(c2)C(=O)OC32c3ccc(O)cc3Oc3cc(O)ccc32)cc1)C(=O)N[C@@H](CCCNC(=N)N)C(=O)NCC(=O)N[C@@H](Cc1c[nH]c2ccccc12)C(=O)O [Compound I-22]
DAR [2, 4]: −0.18

N=C(N)NCCC[C@H](NC(=O)CCOCCOCCNC(=O)c1ccc(OC(=O)CCOCCOCCOCCOCCOCCOCCNC(=S)Nc2ccc3c(c2)C(=O)OC32c3ccc(O)cc3Oc3cc(O)ccc32)cc1)C(=O)N[C@@H](CCCNC(=N)N)C(=O)NCC(=O)N[C@@H](Cc1c[nH]c2ccccc12)C(=O)O [Compound I-23]
DAR [2, 4]: 0.14

CC(=O)N[C@@H](CC(=O)O)C(=O)N[C@H]1CSSC[C@@H](C(=O)N[C@H](C(=O)O)[C@@H](C)O)NC(=O)[C@H](Cc2c[nH]c3ccccc23)NC(=O)[C@H](C(C)C)NC(=O)[C@H](CC(C)C)NC(=O)[C@H](CCC(=O)O)NC(=O)CNC(=O)[C@H](CCC(=O)Nc2cc(OC(=O)CCOCCOCCOCCOCCOCCOCCOCCOCCNC(=S)Nc3ccc4c(c3)C(=O)OC43c4ccc(O)cc4Oc4cc(O)ccc43)ccc2F)NC(=O)[C@H](Cc2c[nH]cn2)NC(=O)[C@H](Cc2c[nH]c3ccccc23)NC(=O)[C@H](C)NC1=O [Compound I-24]
DAR [2, 5]: 0.05
DAR [2, 6]: 0.83

CC(C)C[C@@H]1NC(=O)[C@H](Cc2cnc[nH]2)NC(=O)[C@H](Cc2c[nH]c3ccccc23)NC(=O)[C@H](C)NC(=O)[C@@H](NC(=O)[C@@H](N)CC(=O)O)CSSC[C@@H](C(=O)N[C@H](C(=O)O)[C@@H](C)O)NC(=O)[C@H](Cc2c[nH]c3ccccc23)NC(=O)[C@H](C(C)C)NC(=O)[C@H](CC(C)C)NC(=O)[C@H](CCC(=O)Nc2cc(OC(=O)CCOCCOCCOCCOCCOCCOCCOCCOCCNC(=S)Nc3ccc4c(c3)C(=O)OC43c4ccc(O)cc4Oc4cc(O)ccc43)ccc2F)NC(=O)CNC1=O [Compound I-25]
DAR [2, 5]: 0.10
DAR [2, 6]: 1.25

N=C(N)NCCC[C@H](NC(=O)CCOCCOCCNC(=O)[C@@H](CCC(=O)Oc1ccc(F)cc1)NC(=O)CCOCCOCCOCCOCCOCCOCCNC(=S)Nc1ccc2c(c1)C(=O)OC21c2ccc(O)cc2Oc2cc(O)ccc21)C(=O)N[C@@H](CCCNC(=N)N)C(=O)NCC(=O)N[C@@H](Cc1c[nH]c2ccccc12)C(=O)O [Compound I-26] ({FITC-PEG6}-[dE](X7)[PEG2]RRGW-OH)
DAR [2, 6]: −0.10

N=C(N)NCCC[C@H](NC(=O)CCOCCOCCOCCOCCOCCOCCOCCOCCNC(=O)[C@H](CCC(=O)Oc1ccc(F)cc1)NC(=O)CCOCCOCCOCCOCCOCCOCCNC(=S)Nc1ccc2c(c1)C(=O)OC21c2ccc(O)cc2Oc2cc(O)ccc21)C(=O)N[C@@H](CCCNC(=N)N)C(=O)NCC(=O)N[C@@H](Cc1c[nH]c2ccccc12)C(=O)O [Compound I-27] ({FITC-PEG6}-E(X7)[PEG8]RRGW-OH)
DAR [2, 6]: −0.02

CC(=O)N[C@@H](CC(=O)O)C(=O)N[C@H]1CSSC[C@@H](C(=O)N[C@H](C(=O)O)[C@@H](C)O)NC(=O)[C@H](Cc2c[nH]c3ccccc23)NC(=O)[C@H](C(C)C)NC(=O)[C@H](CC(C)C)NC(=O)[C@H](CCC(=O)O)NC(=O)CNC(=O)[C@H](CC(C)C)NC(=O)[C@H](CCNC(=O)c2ccc(OC(=O)CCOCCOCCOCCOCCOCCOCCNC(=S)Nc3ccc4c(c3)C(=O)OC43c4ccc(O)cc4Oc4cc(O)ccc43)cc2)NC(=O)[C@H](Cc2c[nH]c3ccccc23)NC(=O)[C@H](C)NC1=O [Compound I-42]
DAR [2, 3]: 0.13

CC(=O)N[C@@H](CC(=O)O)C(=O)N[C@H]1CSSC[C@@H](C(=O)N[C@H](C(=O)O)[C@@H](C)O)NC(=O)[C@H](Cc2c[nH]c3ccccc23)NC(=O)[C@H](C(C)C)NC(=O)[C@H](CC(C)C)NC(=O)[C@H](CCC(=O)O)NC(=O)CNC(=O)[C@H](CC(C)C)NC(=O)[C@H](CC(=O)NCc2ccc(OC(=O)CCOCCOCCOCCOCCOCCOCCNC(=S)Nc3ccc4c(c3)C(=O)OC43c4ccc(O)cc4Oc4cc(O)ccc43)cc2)NC(=O)[C@H](Cc2c[nH]c3ccccc23)NC(=O)[C@H](C)NC1=O [Compound I-43]
DAR [2, 3]: 0.26

CC(=O)N[C@@H](CC(=O)O)C(=O)N[C@H]1CSSC[C@@H](C(=O)N[C@H](C(=O)O)[C@@H](C)O)NC(=O)[C@H](Cc2c[nH]c3ccccc23)NC(=O)[C@H](C(C)C)NC(=O)[C@H](CC(C)C)NC(=O)[C@H](CCC(=O)O)NC(=O)CNC(=O)[C@H](CC(C)C)NC(=O)[C@H](CC(=O)NCc2ccc(OC(=O)CCOCCOCCOCCOCCOCCOCCOCCOCCNC(=S)Nc3ccc4c(c3)C(=O)OC43c4ccc(O)cc4Oc4cc(O)ccc43)c(F)c2)NC(=O)[C@H](Cc2c[nH]c3ccccc23)NC(=O)[C@H](C)NC1=O [Compound I-44]
DAR [2, 3]: 0.59
DAR [2, 7]: 0.59
Fold (DAR I-44 over I-10) [2, 7]: 7.79
DAR [2, 8]: 1.42
Fold (DAR I-44 over I-10) [2, 8]: 6.83
DAR [2, 9]: 1.09
Fold (DAR I-44 over I-10) [2, 9]: 16.08
DAR [2, 10]: 1.00
Fold (DAR I-44 over I-10) [2, 10]: 6.58
DAR [2, 11]: 0.99
Fold (DAR I-44 over I-10) [2, 11]: 15.39
DAR [2, 12]: 1.14
Fold (DAR I-44 over I-10) [2, 12]: 36.42
DAR [2, 13]: 1.15
Fold (DAR I-44 over I-10) [2, 13]: 21.43
DAR [2, 14]: 1.66
Fold (DAR I-44 over I-10) [2, 14]: 9.77
FITC DAR ([2]; FIG. 16 (e): Borate buffer pH 8.2, 25 C, 20 h, 2.5 M eq): 0.21

CC(=O)N[C@@H](CC(=O)O)C(=O)N[C@H]1CSSC[C@@H](C(=O)N[C@H](C(=O)O)C(C)C)NC(=O)[C@H](Cc2c[nH]c3ccccc23)NC(=O)[C@H](C(C)C)NC(=O)[C@H](CC(C)C)NC(=O)[C@H](CCC(=O)O)NC(=O)CNC(=O)[C@H](CC(C)C)NC(=O)[C@H](Cc2cccc(OC(=O)CCOCCOCCOCCOCCOCCOCCOCCOCCNC(=S)Nc3ccc4c(c3)C(=O)OC43c4ccc(O)cc4Oc4cc(O)ccc43)c2)NC(=O)[C@H](Cc2c[nH]c3ccccc23)NC(=O)[C@H](C)NC1=O [Compound I-46] (Ac-DCAW[X6]([PEG8-FITC])LGELVWCV-OH; disulfide 2-12)
DAR [2, 5]: 0.15
DAR [2, 6]: 0.43
